Measured values as given in US20070128589A1, “Substrates, sensors, and methods for assessing conditions in females” (priority 2005, published 2007).
No end group written: not given here.

Columns and labels:
[1] = tested on: Lactobacillus sp. protease; assay: GFP-random amino acid sequence-polyhistidine peptide library screen, GFP-peptide released from beads by Lactobacillus supernatant; format: biochemical, Lactobacillus acidophilus; conditions: plate number 69, exposed to Lactobacillus, FIG. 9
Method: (§1) The samples were then incubated with beads that bind the epitope tag (e.g., 10 μl of NTA-resin to bind a polyhistidine tag or 10 μl of methotrexate agarose to bind the FolA tag). The sample was then placed into a microtiter filtration plate and washed three times to remove the unbound proteins. The fluorescent signal of the third wash was measured in a fluorescent microplate reader at an excitation of 355 nm and an emission of 510 nm (for GFP). Alternatively, the HRP activity can be measured in a microplate colorimeter at 405 nm with H2O2 and ABTS substrate. This background reading from the third rinse can later be subtracted from the signal of the released GFP (or HRP) peptides by extracellular bacterial proteases. […]
(§2) The plates can be filtered by centrifugation three times with PBS to remove unbound material and then the GFP-peptide-bound bead can be incubated with microbial extract for 20 min at 37° C. The sample can be filtered and the flow through fluorescence can be compared with the background from the prior wash. If the microbe has a protease that finds the ideal target, then the release of GFP fluorescence from the bead can be over 100 times greater than the background.
(§3) Fluorescence can be measured on a Fluoroskan II instrument with an excitation filter centered at 380 nm and emission filter centered at 538 nm. […]

Gardnerella vaginalis = assay: GFP-random amino acid sequence-polyhistidine peptide library screen with Gardnerella extracts; format: biochemical; conditions: plate 76, FIG. 10
Method: as §1, §2, §3

HSV protein UL26 = HSV protein UL26 (Human herpesvirus 1, UniProt P10210); conditions: cited from earlier work
C. albicans = assay: Identification of peptide targets for C. albicans; format: biochemical, Candida albicans
Method: Clones of green fluorescent protein (GFP) tagged conjugates were used to identify targets in a high throughput screen. Each clone contained a plasmid harboring a gene that contains a polyhistidine tag (6 his), 30 random nucleotides (corresponding to 10 random amino acids), and green fluorescent protein (GFP). On the day before a screen, 864 glowing clones are grown up overnight at 37° C. in deep well microtiter plates (1 ml/well). In the morning, the cultures can be induced with 1 mM IPTG for 1 hour, the cells can be centrifuged for five minutes, and then the media can be decanted. Lysozyme (2 mg/ml) can be added and the cells can be flash frozen 3 times. The samples can be treated with 100 ul/well of DNAse I at 37° C. for 30 minutes to reduce the viscosity by digesting the DNA. An aliquot of the sample can then be transferred to a microtiter filter plate containing 10 μl of nickel-NTA resin. The pipeting of the reagents (IPTG, lysozyme, DNAse I, and beads) can be performed with a Tecan Genesis RSP 100 Robot with Gemini version 4.0 software.
as §2
(SEQ ID NO: 8), the sequence QKTTIKKLKH (H2) (SEQ ID NO: 9), the sequence KPKAFLKVGN (R8) (SEQ ID NO: 6), the sequence TPIQIHTILH (SEQ ID NO: 10), the sequence […] (SEQ ID NO: 11), the sequence […] (SEQ ID NO: 12), and the sequence […] (SEQ ID NO: 13).

[2] = tested on: proteases produced by Trichomonas vaginalis; assay: High throughput screening of GFP-random peptide fusion library with Trichomonas vaginalis cell-free growth medium; format: biochemical; conditions: 4,900 clones screened, LYI entamoeba medium
Method: Peptide substrates for proteases produced by the vaginal pathogen Trichomonas vaginalis were also identified. This microbe was grown in LYI entamoeba medium overnight and the cell-free growth medium was used in the high throughput screening of 4,900 clones from a GFP-random peptide fusion library.
Peptides 39H9 and 42D3 were altered to remove the lysine residues prior to peptide synthesis. The peptides were conjugated to HRP and affigel 10 beads and produced a visible color signal in five minutes at 650 nm when an aliquot of the protease-treated product was incubated with tetramethyl benzidine.

[3] = tested on: C. albicans clinical isolates; conditions: for reaction with ten clinical C. albicans isolates (released HRP): HRP-peptide-Affigel conjugate, cell-free growth medium, ten minutes, FIG. 24; for sensitivity: all ten clinical isolates
Method: For example, ten clinical C. albicans isolates kindly provided by Dr. Andrew Onderdonk (Brigham and Women's Hospital) were tested alongside a strain obtained from C. albicans ATCC. The yeast cells were grown in YCB-BSA (23.4 g yeast carbon base, 2 g yeast extract, 10 g dextrose, and 5 g of BSA per liter—adjusted to pH 5.0). An aliquot of the cell-free growth medium was mixed with an HRP-peptide-Affigel conjugate for ten minutes and the amount of released HRP was determined.

[4] = tested on: Gardnerella vaginalis, Lactobacillus acidophilus, and Escherichia coli; assay: HRP-peptide-Affigel conjugates: initial specificity study with other vaginal bacteria; format: biochemical
Candida albicans = tested on: Candida albicans
Method: For example, in one embodiment, the H2 peptide was conjugated to Blue dye #1 as a reporter on the C-terminal end. The N-terminal end was conjugated to Affigel 10 beads (BioRad). The beads were exposed to an aliquot of overnight grown Candida albicans for a period of 24 hours at 37° C. A control set of beads was also exposed to culture medium. Blue dye released from the beads by the action of Candida albicans was collected on a membrane to produce a clear signal.
Food grade sensors can be used in consumer products. […] The resulting beads were incubated with growth medium (1:2 BHI/PBS) alone (control) and an overnight grow-up of Candida albicans for 24 hours at 37° C. […] The preferred ion exchange membranes to collect the free dye are SB6407 and Biodyne B (Pall Life Sciences, Ann Arbor, Mich. and positively charged PVDF (Millipore)). These membranes have strong positively-charged quaternary ammonium groups.
In one example, dye-conjugated Affigel 10 beads were exposed to Candida albicans supernatant (20 μl of 1:10 dilution of beads) or a medium control (1:2 BHI/PBS) for 24 hours. The color was collected with a positively charged membrane (SB6407) in with the bead reaction.

Chain of HSV protein UL26 (P10210 whole entry): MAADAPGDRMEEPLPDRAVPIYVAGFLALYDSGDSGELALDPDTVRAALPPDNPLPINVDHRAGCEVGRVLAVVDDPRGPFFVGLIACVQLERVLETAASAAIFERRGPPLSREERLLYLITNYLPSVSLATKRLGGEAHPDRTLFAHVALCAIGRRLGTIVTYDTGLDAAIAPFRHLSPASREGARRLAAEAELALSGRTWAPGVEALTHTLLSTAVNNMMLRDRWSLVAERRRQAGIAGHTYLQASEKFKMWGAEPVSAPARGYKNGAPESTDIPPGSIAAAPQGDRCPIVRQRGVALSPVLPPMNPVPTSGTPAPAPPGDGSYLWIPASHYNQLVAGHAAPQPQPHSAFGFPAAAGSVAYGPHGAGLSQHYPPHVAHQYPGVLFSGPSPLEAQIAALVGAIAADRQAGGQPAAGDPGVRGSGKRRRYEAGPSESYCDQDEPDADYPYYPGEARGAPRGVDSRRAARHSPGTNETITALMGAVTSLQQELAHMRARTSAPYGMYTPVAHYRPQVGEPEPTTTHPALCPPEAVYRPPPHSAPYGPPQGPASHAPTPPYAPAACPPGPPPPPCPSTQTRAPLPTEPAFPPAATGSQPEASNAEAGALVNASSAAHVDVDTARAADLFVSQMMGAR

Substance | identified as peptide target for C. albicans (C. albicans) | identified as peptide detecting Trichomonas vaginalis [2] | other results
69/B8 (PFINETYAKFC; Peptide Substrate of Gardnerella vaginalis) |  |  | signal strength (GFP-peptide released from the beads) [1]: 62.8
76/C3 (ITTTSSKHEHC; Peptide Substrate of Lactobacillus acidophilus) |  |  | fluorescence after exposure to Gardnerella extracts (Gardnerella vaginalis): strong fluorescence
ASNAEAGALVNASSAAHVDV |  |  | cleavage site (HSV protein UL26): between the 12th amino acid (alanine) and the 13th amino acid (serine); specificity of UL26 for the sequence (HSV protein UL26): strong specificity
INLSKKQIYP (Peptide Substrate of Candida spp.) [peptide target for C. albicans] | peptide targets for C. albicans |  | 
KNPKLQDHYI (Peptide Substrate of Trichomonas vaginalis) [44B5/T7, peptide detecting Trichomonas vaginalis] |  | detect Trichomonas vaginalis | 
KPKAFLKVGN (also: histidine tag) [R8, C. albicans peptide; used as H2N-…-OH with histidine tag for immobilization] | peptide targets for C. albicans |  | reaction with ten clinical C. albicans isolates (released HRP) [3]: reacted strongly; sensitivity [3]: 100%; clipping by other vaginal bacteria [4]: not significantly clipped
KPSIKPTPPY (Peptide Substrate of Candida spp.) [peptide target for C. albicans] | peptide targets for C. albicans |  | 
LHNYVLLRNIL (Peptide Substrate of Trichomonas vaginalis) [38H8/T7, peptide detecting Trichomonas vaginalis] |  | detect Trichomonas vaginalis | 
LYPSQNPVIK (Peptide Substrate of Candida spp.) [peptide target for C. albicans] | peptide targets for C. albicans |  | 
NITKKSTKII (Peptide Substrate of Candida spp.) [peptide target for C. albicans] | peptide targets for C. albicans |  | 
NKTNKTKHAY (Peptide Substrate of Trichomonas vaginalis) [42H8/T7, peptide detecting Trichomonas vaginalis] |  | detect Trichomonas vaginalis | 
NNPLPKIQKN (Peptide Substrate of Trichomonas vaginalis) [38H9/T7, peptide detecting Trichomonas vaginalis] |  | detect Trichomonas vaginalis | 
QINKALKQPK (Peptide Substrate of Trichomonas vaginalis) [41El 1/T7, peptide detecting Trichomonas vaginalis] |  | detect Trichomonas vaginalis | 
QIPKSLHPIT (Peptide Substrate of Trichomonas vaginalis) [42D3/T7, peptide detecting Trichomonas vaginalis] |  | detect Trichomonas vaginalis | 
QKTTIKKLKH (also: HRP or Blue dye #1 Affigel conjugate) [H2] | peptide targets for C. albicans |  | reaction with ten clinical C. albicans isolates (released HRP) [3]: reacted strongly; sensitivity [3]: 100%; clipping by other vaginal bacteria [4]: not significantly clipped; blue dye released from beads / peptide hydrolysis, color collected on membrane (Candida albicans; overnight grown Candida albicans, 24 hours at 37° C., no signal from control medium): highly visible blue color
QRTTIRRLRH [modified H2 peptide] |  |  | time to visible blue dye release (Candida albicans; collection of color in a feminine pad): approximately 3 hours
SKQQDIIKKY (Peptide Substrate of Trichomonas vaginalis) [44E6/T7, peptide detecting Trichomonas vaginalis] |  | detect Trichomonas vaginalis | 
